Source: PubChem BioAssay AID1963985 (Molecular Pharmacology Branch, DTP, NCI, 2024)

Tested on: 252836-082-R-J2-PDC tumor spheroids, viability
Test: Anticancer human tumor 252836-082-R-J2-PDC patient-derived head and neck squamous cell carcinoma cell line growth inhibition [PI3K]
Settings: spheroids with HUVEC and MSC; for IC50: curve of first compound; for viability, T/C: stronger effect = lower value; active means viability on the fitted dose curve at most 10% of control; inactive means the rest
Excerpt: Combinatorial screen of targeted agents with the PI3K inhibitors inavolisib, alpelisib, duvelisib, and copanlisib in multi-cell type tumor spheroids
A high-throughput screen of multi-cell type tumor spheroids was designed to identify active combinations of targeted small molecules and PI3K pathway inhibitors. Complex spheroids include a stromal component modeled by human endothelial cells (HUVEC) and fibroblasts modeled by human mesenchymal stem cells (MSCs). The concentration ranges selected for each drug and investigational agent were based upon clinically achievable concentrations if the clinical Cmax of the agent was known.
Compounds. The drugs and investigational agents: inavolisib (NSC800729), alpelisib (NSC765974), duvelisib (NSC772469), copanlisib (NSC816437), ipatasertib (NSC767898), afuresertib (NSC778305), talazoparib (NSC767125), sapanisertib (NSC764658), selumetinib (NSC741078), tovorafenib (DAY101, NSC766906), vemurafenib (NSC761431), ravoxertinib (NSC781343), sotorasib (NSC818433), MRTX1133 (NSC 836407), abemaciclib (NSC 768073), palbociclib (NSC758247), venetoclax (NSC 766270), SY5609 (NSC837396), enzalutamide (NSC755605), and darolutamide (NSC825331), were obtained from the National Cancer Institute (NCI) Developmental Therapeutics Program Chemical Repository. The FDA-approved anticancer drug set is available from the NCI Developmental Therapeutics Program. […] The stock solutions were prepared in dimethyl sulfoxide (DMSO, Sigma-Aldrich, St. Louis, MO, cat. D2650) at 800-fold the tested concentration and stored at -70 degrees C prior to their use. All drugs and investigational agents were tested over a range starting from a high concentration at or near the clinical Cmax and decreasing in half-log increments. If the clinical Cmax for an agent had not been determined, the highest concentration tested was 10 microM.
Cell Culture. All cells were maintained in an incubator at 37 degrees C and 5% CO2 with 95% humidity. The PDC lines were cultured according to standard operating procedures established by the NCI PDMR (https://pdmr.cancer.gov/sops/default.htm). All PDCs were thawed and cultured in Matrigel-coated flasks prepared with a working solution of 1X Ham's F-12 nutrient mix, without supplementation (Invitrogen, Waltham, MA, cat. 11765054), 100 U/mL penicillin-streptomycin (Invitrogen, cat. 15140122), and 2.5% Matrigel (Corning Inc., Corning, NY, cat. 354248) for the first three passages. The 354836-022-R-J1-PDC, 475296-252-R-J1-PDC, and 997726-040-R-J2-PDC lines were cultured in 6A media, which includes advanced DMEM/F-12 (Thermo Fisher Scientific, cat. 12634028), 10 mM HEPES (Thermo Fisher Scientific, cat. 15630080), 1X GlutaMAX supplement (Thermo Fisher Scientific, cat. 35050061), 0.1 mg/mL primocin (InvivoGen, San Diego, CA, cat. ant-pm-2), 10% defined fetal bovine serum, heat inactivated (HyClone Laboratories Inc., Logan, UT, cat. SH30070.03HI), 50% L-WRN conditioned media (ATCC, cat. CRL-3276), 1.25 mM N-Acetyl-L-cysteine (Sigma-Aldrich, cat. A9165), 10 mM nicotinamide (Sigma-Aldrich, cat. N0636), 1X B-27 supplement (Thermo Fisher Scientific, cat. 17504044), 1X N-2 supplement (Thermo Fisher Scientific, cat. 17502048), and 10 microM Y-27632 dihydrochloride (Tocris Bioscience, Bristol, United Kingdom, cat. 1254). The 624824-186-R-J2-PDC line was cultured in 6C/Colon 1B media, which includes all 6A media components plus 50 ng/mL human EGF recombinant protein (Thermo Fisher Scientific, cat. PHG0311). […]
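Further: spheroids exposed to agents for seven days before readout.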
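Wherever viability, T/C is given: percent of vehicle DMSO control viability so 100% = untreated growth.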

CNC(=O)c1ccc(N2C(=S)N(c3ccc(C#N)c(C(F)(F)F)c3)C(=O)C2(C)C)cc1F + CC(Nc1ccc2c(c1)OCCn1cc(N3C(=O)OCC3C(F)F)nc1-2)C(N)=O
inactive: viability, T/C (second compound 0.00316 µM, first compound 0.0316 µM) 97% | viability, T/C (second compound 0.00316 µM, first compound 0.1 µM) 84.2% | viability, T/C (second compound 0.00316 µM, first compound 0.316 µM) 92.5% | viability, T/C (second compound 0.00316 µM, first compound 1 µM) 91.6% | viability, T/C (second compound 0.00316 µM, first compound 3.16 µM) 102% | viability, T/C (second compound 0.00316 µM, first compound 10 µM) 84.1% | viability, T/C (second compound 0.01 µM, first compound 0.0316 µM) 96.5% | viability, T/C (second compound 0.01 µM, first compound 0.1 µM) 99.9% | viability, T/C (second compound 0.01 µM, first compound 0.316 µM) 82% | viability, T/C (second compound 0.01 µM, first compound 1 µM) 89.1% | viability, T/C (second compound 0.01 µM, first compound 3.16 µM) 103% | viability, T/C (second compound 0.01 µM, first compound 10 µM) 98% | viability, T/C (second compound 0.0316 µM, first compound 0.0316 µM) 90.8% | viability, T/C (second compound 0.0316 µM, first compound 0.1 µM) 81.7% | viability, T/C (second compound 0.0316 µM, first compound 0.316 µM) 80.2% | viability, T/C (second compound 0.0316 µM, first compound 1 µM) 77.1% | viability, T/C (second compound 0.0316 µM, first compound 3.16 µM) 75.1% | viability, T/C (second compound 0.0316 µM, first compound 10 µM) 78.9% | viability, T/C (second compound 0.1 µM, first compound 0.0316 µM) 68.9% | viability, T/C (second compound 0.1 µM, first compound 0.1 µM) 69.5% | viability, T/C (second compound 0.1 µM, first compound 0.316 µM) 73.7% | viability, T/C (second compound 0.1 µM, first compound 1 µM) 66% | viability, T/C (second compound 0.1 µM, first compound 3.16 µM) 61.5% | viability, T/C (second compound 0.1 µM, first compound 10 µM) 67.9% | viability, T/C (second compound 0.316 µM, first compound 0.0316 µM) 55.4% | viability, T/C (second compound 0.316 µM, first compound 0.1 µM) 58.3% | viability, T/C (second compound 0.316 µM, first compound 0.316 µM) 53% | viability, T/C (second compound 0.316 µM, first compound 1 µM) 51.9% | viability, T/C (second compound 0.316 µM, first compound 3.16 µM) 61.9% | viability, T/C (second compound 0.316 µM, first compound 10 µM) 52.3% | viability, T/C (second compound 1 µM, first compound 0.0316 µM) 46.3% | viability, T/C (second compound 1 µM, first compound 0.1 µM) 44% | viability, T/C (second compound 1 µM, first compound 0.316 µM) 43.2% | viability, T/C (second compound 1 µM, first compound 1 µM) 50.5% | viability, T/C (second compound 1 µM, first compound 3.16 µM) 51.4% | viability, T/C (second compound 1 µM, first compound 10 µM) 45.8%
> 10 µM: IC50 (second compound 0.00316 µM) | IC50 (second compound 0.01 µM) | IC50 (second compound 0.0316 µM) | IC50 (second compound 0.1 µM) | IC50 (second compound 0.316 µM)
< 0.0316 µM: IC50 (second compound 1 µM)
